For assay [1], the system named is Trace amine-associated receptor 1 (Mus musculus), Q923Y8 [Y287N]. The assay is described as follows: Activation of mouse TAAR1 transmembrane domain 7 Tyr287(7.39)Asn mutant expressed in HEK293 cells assessed as stimulation of cAMP production at 0.0001 to 100 uM after 1 hr by chemiluminescent assay relative to beta-phenylethylamine. Format: functional, cell-based. Background: Cyclic AMP is a second messenger, typically raised through Gs and lowered through Gi signalling.

The subject of assay [2] is Trace amine-associated receptor 1 (Rattus norvegicus), Q923Y9 [N287Y]. The assay is described as follows: Activation of rat TAAR1 transmembrane domain 7 Asn287(7.39)Tyr mutant expressed in HEK293 cells assessed as stimulation of cAMP production at 0.0001 to 100 uM after 1 hr by chemiluminescent assay relative to beta-phenylethylamine. Format: functional, cell-based.
In assay [3] the test system is Trace amine-associated receptor 1 (Mus musculus), Q923Y8 [T268M]. Description: Activation of mouse TAAR1 transmembrane domain 6 Thr268(6.55)Met mutant expressed in HEK293 cells assessed as stimulation of cAMP production at 0.0001 to 100 uM after 1 hr by chemiluminescent assay relative to beta-phenylethylamine. Format: functional, cell-based.
In assay [4] the test system is Trace amine-associated receptor 1 (Rattus norvegicus), Q923Y9 [M268T]. Description: Activation of rat TAAR1 transmembrane domain 6 Met268(6.55)Thr mutant expressed in HEK293 cells assessed as stimulation of cAMP production at 0.0001 to 100 uM after 1 hr by chemiluminescent assay relative to beta-phenylethylamine. Format: functional, cell-based.
For assay [5], the target named is Trace amine-associated receptor 1 (Mus musculus) (UniProt Q923Y8). The assay is described as follows: Activation of mouse wild type TAAR1 expressed in HEK293 cells assessed as stimulation of cAMP production at 0.0001 to 100 uM after 1 hr by chemiluminescent assay relative to beta-phenylethylamine. Format: functional, cell-based.
The target in assay [6] is Trace amine-associated receptor 1 (Rattus norvegicus) (UniProt Q923Y9). Description: Activation of rat wild type TAAR1 expressed in HEK293 cells assessed as stimulation of cAMP production at 0.0001 to 100 uM after 1 hr by chemiluminescent assay relative to beta-phenylethylamine. Format: functional, cell-based.
The target in assay [7] is Trace amine-associated receptor 1 (Mus musculus, UniProt Q923Y8, Y287N). Description: Activation of mouse TAAR1 transmembrane domain 7 Tyr287(7.39)Asn mutant expressed in HEK293 cells assessed as stimulation of cAMP production after 1 hr by chemiluminescent assay. Format: functional, cell-based.
Assay [8] deals with Trace amine-associated receptor 1 (Rattus norvegicus, UniProt Q923Y9, N287Y). The assay is described as follows: Activation of rat TAAR1 transmembrane domain 7 Asn287(7.39)Tyr mutant expressed in HEK293 cells assessed as stimulation of cAMP production after 1 hr by chemiluminescent assay. Format: functional, cell-based.
The target of assay [9] is Trace amine-associated receptor 1 (Mus musculus, UniProt Q923Y8, T268M). Description: Activation of mouse TAAR1 transmembrane domain 6 Thr268(6.55)Met mutant expressed in HEK293 cells assessed as stimulation of cAMP production after 1 hr by chemiluminescent assay. Format: functional, cell-based.
In assay [10] the target is Trace amine-associated receptor 1 (Rattus norvegicus, UniProt Q923Y9, M268T). Description: Activation of rat TAAR1 transmembrane domain 6 Met268(6.55)Thr mutant expressed in HEK293 cells assessed as stimulation of cAMP production after 1 hr by chemiluminescent assay. Format: functional, cell-based.
Assay [11] deals with Trace amine-associated receptor 1 (Mus musculus, UniProt Q923Y8). The assay is described as follows: Activation of mouse wild type TAAR1 expressed in HEK293 cells assessed as stimulation of cAMP production after 1 hr by chemiluminescent assay. Format: functional, cell-based.
In assay [12] the test system is Trace amine-associated receptor 1 (Mus musculus), Q923Y8 [D102A]. The assay is described as follows: Activation of mouse TAAR1 Asp102(3.32)Ala mutant expressed in HEK293 cells assessed as stimulation of cAMP production at 0.0001 to 100 uM after 1 hr by chemiluminescent assay. Format: functional, cell-based.
The species entered for the next assay is Rattus norvegicus. The assay is described as follows: Selectivity ratio of EC50 for rat TAAR1 transmembrane domain 6 Met268(6.55)Thr mutant to EC50 for rat wild type TAAR1.
The species named for a further assay is Mus musculus. Description: Selectivity ratio of EC50 for mouse wild type TAAR1 to EC50 for mouse TAAR1 transmembrane domain 6 Thr268(6.55)Met mutant.
The test system of assay [13] is Trace amine-associated receptor 1 (Rattus norvegicus), Q923Y9 [D102A]. The assay is described as follows: Activation of rat TAAR1 Asp102(3.32)Ala mutant expressed in HEK293 cells assessed as stimulation of cAMP production at 0.0001 to 100 uM after 1 hr by chemiluminescent assay relative to control. Format: functional, cell-based.
The target in assay [14] is Trace amine-associated receptor 1 (Rattus norvegicus, UniProt Q923Y9). Description: Activation of rat wild type TAAR1 expressed in HEK293 cells assessed as stimulation of cAMP production after 1 hr by chemiluminescent assay. Format: functional, cell-based.
The test system of assay [15] is Trace amine-associated receptor 1 (Mus musculus), Q923Y8 [Y287N]. The assay is described as follows: Activation of mouse TAAR1 transmembrane domain 7 Tyr287(7.39)Asn mutant expressed in HEK293 cells assessed as stimulation of cAMP production at 0.0001 to 100 uM after 1 hr by chemiluminescent assay relative to control. Format: functional, cell-based.
The test system of assay [16] is Trace amine-associated receptor 1 (Rattus norvegicus), Q923Y9 [N287Y]. The assay is described as follows: Activation of rat TAAR1 transmembrane domain 7 Asn287(7.39)Tyr mutant expressed in HEK293 cells assessed as stimulation of cAMP production at 0.0001 to 100 uM after 1 hr by chemiluminescent assay relative to control. Format: functional, cell-based.
For assay [17], the system named is Trace amine-associated receptor 1 (Mus musculus), Q923Y8 [T268M]. The assay is described as follows: Activation of mouse TAAR1 transmembrane domain 6 Thr268(6.55)Met mutant expressed in HEK293 cells assessed as stimulation of cAMP production at 0.0001 to 100 uM after 1 hr by chemiluminescent assay relative to control. Format: functional, cell-based.
Assay [18] deals with Trace amine-associated receptor 1 (Rattus norvegicus), Q923Y9 [M268T]. Description: Activation of rat TAAR1 transmembrane domain 6 Met268(6.55)Thr mutant expressed in HEK293 cells assessed as stimulation of cAMP production at 0.0001 to 100 uM after 1 hr by chemiluminescent assay relative to control. Format: functional, cell-based.
Assay [19] concerns the target Trace amine-associated receptor 1 (Mus musculus) (UniProt Q923Y8). Description: Activation of mouse wild type TAAR1 expressed in HEK293 cells assessed as stimulation of cAMP production at 0.0001 to 100 uM after 1 hr by chemiluminescent assay relative to control. Format: functional, cell-based.
Assay [20] addresses Trace amine-associated receptor 1 (Rattus norvegicus) (UniProt Q923Y9). The assay is described as follows: Activation of rat wild type TAAR1 expressed in HEK293 cells assessed as stimulation of cAMP production at 0.0001 to 100 uM after 1 hr by chemiluminescent assay relative to control. Format: functional, cell-based.

Here are results for six molecules from ChEMBL document CHEMBL3108730, “Exploring the determinants of trace amine-associated receptor 1's functional selectivity for the stereoisomers of amphetamine and methamphetamine” (J Med Chem, 2014).

pEC50: −log10 of the molar value. Activity calls are given as the source filed them. The rule behind the calls is not given here.

Sequence of Trace amine-associated receptor 1 (Mus musculus, UniProt Q923Y8) (Q923Y8 whole entry): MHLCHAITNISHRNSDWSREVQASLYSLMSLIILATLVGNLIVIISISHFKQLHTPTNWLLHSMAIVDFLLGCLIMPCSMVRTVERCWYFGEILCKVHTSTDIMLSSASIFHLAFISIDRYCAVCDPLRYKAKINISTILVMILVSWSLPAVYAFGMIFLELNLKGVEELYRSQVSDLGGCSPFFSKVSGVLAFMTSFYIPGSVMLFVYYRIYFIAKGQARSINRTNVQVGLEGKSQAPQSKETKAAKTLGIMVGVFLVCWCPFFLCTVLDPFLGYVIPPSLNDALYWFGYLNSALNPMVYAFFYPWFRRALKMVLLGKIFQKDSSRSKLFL
Sequence of Trace amine-associated receptor 1 (Mus musculus) (Q923Y8 whole entry): as above
Sequence of Trace amine-associated receptor 1 (Rattus norvegicus) (Q923Y9 whole entry, the tested form may be a part): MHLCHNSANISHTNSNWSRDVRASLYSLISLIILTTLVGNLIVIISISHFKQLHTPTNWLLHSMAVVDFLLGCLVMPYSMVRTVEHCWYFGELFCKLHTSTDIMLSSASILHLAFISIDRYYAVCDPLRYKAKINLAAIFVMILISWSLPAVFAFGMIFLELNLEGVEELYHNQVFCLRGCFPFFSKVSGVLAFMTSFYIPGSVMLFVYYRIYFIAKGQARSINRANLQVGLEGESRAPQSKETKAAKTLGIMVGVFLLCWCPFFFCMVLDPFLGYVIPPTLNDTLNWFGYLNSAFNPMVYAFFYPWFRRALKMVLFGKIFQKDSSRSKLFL
Sequence of Trace amine-associated receptor 1 (Mus musculus, UniProt Q923Y8, T268M) (Q923Y8 whole entry T268M, the tested form may be a part): as the sequence (Q923Y8 whole entry) above, with T268M counted along it
Sequence of Trace amine-associated receptor 1 (Mus musculus), Q923Y8 [T268M] (Q923Y8 whole entry T268M, the tested form may be a part): as the sequence (Q923Y8 whole entry) above, with T268M counted along it
Sequence of Trace amine-associated receptor 1 (Rattus norvegicus, UniProt Q923Y9, N287Y) (Q923Y9 whole entry N287Y, the tested form may be a part): as the sequence (Q923Y9 whole entry, the tested form may be a part) above, with N287Y counted along it
Sequence of Trace amine-associated receptor 1 (Rattus norvegicus), Q923Y9 [N287Y] (Q923Y9 whole entry N287Y, the tested form may be a part): as the sequence (Q923Y9 whole entry, the tested form may be a part) above, with N287Y counted along it
Sequence of Trace amine-associated receptor 1 (Mus musculus, UniProt Q923Y8, Y287N) (Q923Y8 whole entry Y287N, the tested form may be a part): as the sequence (Q923Y8 whole entry) above, with Y287N counted along it
Sequence of Trace amine-associated receptor 1 (Mus musculus), Q923Y8 [Y287N] (Q923Y8 whole entry Y287N, the tested form may be a part): as the sequence (Q923Y8 whole entry) above, with Y287N counted along it
Sequence of Trace amine-associated receptor 1 (Rattus norvegicus), Q923Y9 [M268T] (Q923Y9 whole entry M268T, the tested form may be a part): as the sequence (Q923Y9 whole entry, the tested form may be a part) above, with M268T counted along it
Sequence of Trace amine-associated receptor 1 (Rattus norvegicus, UniProt Q923Y9, M268T) (Q923Y9 whole entry M268T, the tested form may be a part): as the sequence (Q923Y9 whole entry, the tested form may be a part) above, with M268T counted along it
Sequence of Trace amine-associated receptor 1 (Mus musculus), Q923Y8 [D102A] (Q923Y8 whole entry D102A, the tested form may be a part): as the sequence (Q923Y8 whole entry) above, with D102A counted along it
Sequence of Trace amine-associated receptor 1 (Rattus norvegicus, UniProt Q923Y9) (Q923Y9 whole entry, the tested form may be a part): as the sequence (Q923Y9 whole entry, the tested form may be a part) above
Sequence of Trace amine-associated receptor 1 (Rattus norvegicus), Q923Y9 [D102A] (Q923Y9 whole entry D102A): as the sequence (Q923Y9 whole entry, the tested form may be a part) above, with D102A counted along it

For the molecule `CN[C@H](C)Cc1ccccc1`, the Emax (usually the maximal effect, on the per cent scale that the assay sets) worked out at 89.6% in [1]; 93.3% in assay [2]; 91.5% in [3]; 77.6% in [4]; 96.9% in [5]; 82.5% in assay [6]. Further, the pEC50 (commonly the negative decadic logarithm of the EC50, by convention in mol/L) in assay [7] was 5.80; in assay [8], 6.48; in assay [9], 6.90; in assay [10], 5.96; in assay [11], 6.07. Besides, the outcome in assay [12] was inactive. Further, the Ratio EC50 in the assay listed under Rattus norvegicus and in the assay listed under Mus musculus was 10 throughout.

Consider `NCCc1ccc(O)cc1`, for which the result in [12] and in assay [13] was inactive.

In the case of `C[C@H](N)Cc1ccccc1` [DEXTROAMPHETAMINE], the Emax worked out at 93% in assay [1]; 103% in [2]; 98% in assay [3]; 93.8% in assay [4]; 99.8% in assay [5]; 102% in [6]. The pEC50 in [7] was 6.66; in [9] it was 8.40; in assay [11], 7.07. The result in [12] was inactive.

In the case of `C[C@@H](N)Cc1ccccc1` [LEVAMFETAMINE], the Emax in [1] stood at 89.4%; in assay [2] it was 95.8%; in [3], 90.5%; in assay [4] it was 91.6%; in assay [5], 93.6%; in assay [6], 86.7%. Also, the pEC50 was 6.98 in [7] and 6.92 in [9]. Moreover, the outcome in assay [12] was inactive.

Consider `CN[C@@H](C)Cc1ccccc1` [METHAMPHETAMINE], for which the Emax in [1] worked out at 92.2%; in assay [2], 101%; in assay [3], 94%; in [4], 94.3%; in assay [5], 98%; in [6] it was 94.3%. The pEC50 in assay [7] is 5.74; in [8], 6.70; in [9], 7.75; in [10], 5.69; in assay [11] it was 6.55; in assay [14], 6.88. Besides, the outcome in assay [12] was inactive. Besides, the Ratio EC50 in the assay filed under Rattus norvegicus and in the assay listed under Mus musculus was 10 throughout.

With `NCCc1ccccc1` [PHENETHYLAMINE], the pEC50 was 7.23 in assay [7]; 6.77 in assay [8]; 7.33 in [9]; 6.58 in assay [10]; 6.72 in assay [11]; 7.39 in [14]. In addition, the result in assay [12] was inactive. For the same molecule, the Emax in assay [15] was 95.9%; in assay [16], 97.2%; in [17] it was 97.6%; in assay [18], 97.8%; in assay [19], 95%; in assay [20], 96.4%.
